The source made the active and inactive calls. No cut-off for these calls is given here.
Key:
[1] = biological target: T1, NAD-dependent protein deacetylase sirtuin-1 (Homo sapiens) (UniProt Q96EB6); assay: Activation of SIRT1 (unknown origin) by mass spectrophotometric analysis
T1 sequence (whole entry): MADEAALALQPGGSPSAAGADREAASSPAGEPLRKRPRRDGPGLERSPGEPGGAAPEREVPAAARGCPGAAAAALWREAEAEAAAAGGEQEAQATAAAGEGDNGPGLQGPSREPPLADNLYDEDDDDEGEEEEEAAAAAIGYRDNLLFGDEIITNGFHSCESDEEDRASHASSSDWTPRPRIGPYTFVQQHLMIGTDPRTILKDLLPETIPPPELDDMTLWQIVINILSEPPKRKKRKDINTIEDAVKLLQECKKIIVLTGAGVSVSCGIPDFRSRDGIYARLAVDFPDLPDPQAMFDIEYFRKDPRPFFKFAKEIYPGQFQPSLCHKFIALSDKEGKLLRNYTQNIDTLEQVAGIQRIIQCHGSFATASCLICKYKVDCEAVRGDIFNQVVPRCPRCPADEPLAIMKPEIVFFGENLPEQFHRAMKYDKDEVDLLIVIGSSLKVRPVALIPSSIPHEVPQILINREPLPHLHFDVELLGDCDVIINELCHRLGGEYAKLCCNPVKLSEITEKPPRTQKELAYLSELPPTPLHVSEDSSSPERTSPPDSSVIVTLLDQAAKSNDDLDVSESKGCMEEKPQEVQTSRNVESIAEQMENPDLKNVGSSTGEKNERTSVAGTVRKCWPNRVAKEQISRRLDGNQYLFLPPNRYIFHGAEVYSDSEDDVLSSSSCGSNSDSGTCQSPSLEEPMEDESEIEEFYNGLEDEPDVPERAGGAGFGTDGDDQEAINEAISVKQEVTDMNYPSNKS

[2] = Octanol-water apparent partition coefficient, log D of the compound at pH 7.4 after 24 hrs by shake flask method; assay type: physicochemical
[3] = biological target: T1, NAD-dependent protein deacetylase sirtuin-1 (Homo sapiens); assay: Activation of SIRT1 in human U2OS cells assessed as increase in deacetylation of doxorubicin-induced acetylated p53 at 0.01 to 1 uM by Western blot analysis; assay type: cell-based
[4] = biological target: T1, NAD-dependent protein deacetylase sirtuin-1 (Homo sapiens); assay: Activation of SIRT1 in human U2OS cells assessed as increase in ALP activity using p-NPP as substrate measured after 30 mins by colorimetric method; assay type: cell-based

Row | EC150 [1] [µM] | SMILES | other results
1 | 1.49 | Cn1nc(-c2cnc3ccccc3c2)c2cc(NCc3cc(F)ccc3S(C)(=O)=O)ccc21 | –
2 | > 20 | Cc1cc(CNc2ccc3c(c2)c(-c2ccc(C(=O)N[C@H]4CC[C@H](O)CC4)cc2)nn3C)c(S(C)(=O)=O)cc1F | –
3 | 2.88 | Cn1nc(-c2ccc3ccccc3c2)c2cc(NCc3cc(F)ccc3S(C)(=O)=O)ccc21 | –
4 | 0.4 | Cn1nc(-c2ccc(C(=O)N[C@H]3CC[C@H](O)CC3)cc2)c2cc(NCc3cc(F)c(F)cc3S(C)(=O)=O)ccc21 | logD at 24 h [2]: 1.37; Activity [3]: Active; EC30 [4]: 0.65 nM
5 | 7.23 | COCCS(=O)(=O)c1ccccc1CNc1ccc2c(c1)c(-c1ccc(C(=O)N[C@H]3CC[C@H](O)CC3)cc1)nn2C | –
6 | 0.4 | Cc1cc(S(C)(=O)=O)c(CNc2ccc3c(c2)c(-c2ccc(C(=O)N[C@H]4CC[C@H](O)CC4)cc2)nn3C)cc1F | logD at 24 h [2]: 1.41
7 | 2.92 | CNC(=O)c1ccc(-c2nn(C)c3ccc(NCc4cc(F)ccc4S(C)(=O)=O)cc23)cc1 | –
8 | 0.95 | Cn1nc(-c2ccc(C(=O)N[C@H]3CC[C@H](O)CC3)cc2)c2cc(NCc3cc(F)ccc3S(C)(=O)=O)ccc21 | –
9 | 1.36 | Cn1nc(-c2ccc(C(=O)NCCc3ccn[nH]3)cc2)c2cc(NCc3cc(F)ccc3S(C)(=O)=O)ccc21 | –
10 | 2.4 | CCS(=O)(=O)c1ccccc1CNc1ccc2c(c1)c(-c1ccc(C(=O)N[C@H]3CC[C@H](O)CC3)cc1)nn2C | –
11 | 1.46 | Cn1nc(-c2ccc(C(=O)NCC3CCCO3)cc2)c2cc(NCc3cc(F)ccc3S(C)(=O)=O)ccc21 (configuration not stated) | –
12 | 4.54 | CCCS(=O)(=O)c1ccccc1CNc1ccc2c(c1)c(-c1ccc(C(=O)N[C@H]3CC[C@H](O)CC3)cc1)nn2C | –
13 | 1.52 | Cn1nc(-c2cc3ccccc3s2)c2cc(NCc3cc(F)ccc3S(C)(=O)=O)ccc21 | –

Source: ChEMBL document CHEMBL4177597, “A series of novel indazole derivatives of Sirt 1 activator as osteogenic regulators” (Bioorg Med Chem Lett, 2017)
